# Laboratory results taken from publication PMC5908784, “Extracellular loops 2 and 3 of the calcitonin receptor selectively modify agonist binding and efficacy” (Biochemical Pharmacology, 2018).
# Positions count from the first letter of the chain named. Where a SMILES comes first, the peptide text is derived from it. Bridges are numbered along the chain shown (N, C = ends).
# Legend:
# Assay in all cases: cAMP accumulation
# Type in all cases: cell-based
# [1] = molecular target: T1, hCTR F285A (Homo sapiens, UniProt P30988, F285A); conditions: mean ± S.E.M.; for Emax: cAMP maximal response, SEM; for EC50: cAMP, CV1-FlpIn cells, 30 min, IBMX
# T1 construct: expressed in transfected cells
# T1 sequence (P30988 25-474 F285A): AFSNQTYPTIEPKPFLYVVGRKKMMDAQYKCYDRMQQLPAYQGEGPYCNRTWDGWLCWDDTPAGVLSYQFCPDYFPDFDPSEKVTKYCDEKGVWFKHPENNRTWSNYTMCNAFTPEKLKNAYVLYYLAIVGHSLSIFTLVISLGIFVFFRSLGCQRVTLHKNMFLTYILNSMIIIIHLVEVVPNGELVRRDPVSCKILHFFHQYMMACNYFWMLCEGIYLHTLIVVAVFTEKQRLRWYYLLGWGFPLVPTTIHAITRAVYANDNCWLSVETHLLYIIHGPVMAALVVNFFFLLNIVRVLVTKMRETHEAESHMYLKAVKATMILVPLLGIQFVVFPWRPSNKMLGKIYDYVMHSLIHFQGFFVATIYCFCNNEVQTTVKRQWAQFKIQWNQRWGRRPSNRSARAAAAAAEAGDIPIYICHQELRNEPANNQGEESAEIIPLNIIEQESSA
# Procedure, shortened: (§1)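 Concentration-response curves, fitted to a 3-parameter logistic equation, gave EC50 and Emax; these reflect functional affinity, efficacy and stimulus-response coupling combined. Stimulation lasted 30 min with IBMX, and data were scaled to the 100 μM forskolin response.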
# [2] = molecular target: T2, hCTR H296A (Homo sapiens, UniProt P30988, H296A); conditions: mean ± S.E.M.; for Emax: cAMP maximal response, SEM; for EC50: cAMP, CV1-FlpIn cells, 30 min, IBMX
# T2 construct: c-Myc (N); expressed in transfected cells
# T2 sequence (P30988 25-474 H296A): T1 sequence (P30988 25-474 F285A) with A261F, H272A
# Procedure, shortened: as §1
# [3] = molecular target: T3, hCTR L291A (Homo sapiens, UniProt P30988, L291A); conditions: mean ± S.E.M.; for Emax: cAMP maximal response, SEM
# T3 construct: expressed in transfected cells
# T3 sequence (P30988 25-474 L291A): T1 sequence (P30988 25-474 F285A) with A261F, L267A
# Procedure, shortened: as §1
# [4] = molecular target: T4, hCTR Y284A (Homo sapiens, UniProt P30988, Y284A); conditions: mean ± S.E.M.; for Emax: cAMP maximal response, SEM; for EC50: cAMP, CV1-FlpIn cells, 30 min, IBMX
# T4 construct: expressed in transfected cells
# T4 sequence (P30988 25-474 Y284A): T1 sequence (P30988 25-474 F285A) with Y260A, A261F
# Procedure, shortened: as §1
# [5] = molecular target: T5, hCTR K366A (Homo sapiens, UniProt P30988, K366A); conditions: mean ± S.E.M.; for Emax: cAMP maximal response, SEM; for EC50: cAMP, CV1-FlpIn cells, 30 min, IBMX
# T5 construct: c-Myc (N); expressed in transfected cells
# T5 sequence (P30988 25-474 K366A): T1 sequence (P30988 25-474 F285A) with A261F, K342A
# Procedure, shortened: as §1
EC50 [1] [pM],EC50 [2] [pM],EC50 [4] [pM],EC50 [5] [pM],"EC50 ([3]; cAMP, CV1-FlpIn cells, 30 min, IBMX) [pM]",Compound,Emax [1] [%],Emax [2] [%],Emax [3] [%],Emax [4] [%],Emax [5] [%]
–,–,–,–,–,CC[C@H](C)[C@H](NC(=O)[C@H](C)NC(=O)[C@@H](NC(=O)[C@H](CCC(N)=O)NC(=O)[C@@H]1CCCN1C(=O)[C@H](Cc1ccccc1)NC(=O)[C@@H](NC(=O)[C@H](Cc1c[nH]cn1)NC(=O)[C@H](Cc1ccccc1)NC(=O)[C@H](CCCCN)NC(=O)[C@H](CC(N)=O)NC(=O)[C@H](Cc1ccccc1)NC(=O)[C@H](CC(=O)O)NC(=O)[C@H](CCC(N)=O)NC(=O)[C@@H](NC(=O)[C@H](Cc1ccc(O)cc1)NC(=O)[C@@H](NC(=O)CNC(=O)[C@H](CC(C)C)NC(=O)[C@H](CCSC)NC(=O)[C@@H]1CSSC[C@H](N)C(=O)NCC(=O)N[C@@H](CC(N)=O)C(=O)N[C@@H](CC(C)C)C(=O)N[C@@H](CO)C(=O)N[C@@H]([C@@H](C)O)C(=O)N1)[C@@H](C)O)[C@@H](C)O)[C@@H](C)O)[C@@H](C)O)C(=O)NCC(=O)N[C@H](C(=O)NCC(=O)N[C@@H](C)C(=O)N1CCC[C@H]1C(N)=O)C(C)C [hCT],105 ± 11,87 ± 4,131 ± 5,103 ± 10,74 ± 3
15800,14100,19100,5370,–,CC(C)C[C@H](NC(=O)CNC(=O)[C@H](C)NC(=O)[C@H](CC(C)C)NC(=O)[C@H](CCCNC(=N)N)NC(=O)[C@H](Cc1cnc[nH]1)NC(=O)[C@@H](NC(=O)[C@@H](NC(=O)[C@@H]1CSSC[C@H](NC(=O)[C@H](C)N)C(=O)N[C@@H](CC(=O)O)C(=O)N[C@@H]([C@@H](C)O)C(=O)N[C@@H](C)C(=O)N[C@@H]([C@@H](C)O)C(=O)N1)C(C)C)[C@@H](C)O)C(=O)N[C@@H](CC(C)C)C(=O)N[C@@H](CO)C(=O)N[C@@H](CCCNC(=N)N)C(=O)N[C@@H](CO)C(=O)NCC(=O)NCC(=O)N[C@H](C(=O)N[C@H](C(=O)N[C@@H](CCCCN)C(=O)N[C@@H](CC(N)=O)C(=O)N[C@@H](CC(N)=O)C(=O)N[C@@H](Cc1ccccc1)C(=O)N[C@H](C(=O)N1CCC[C@H]1C(=O)N[C@H](C(=O)N[C@@H](CC(N)=O)C(=O)N[C@H](C(=O)NCC(=O)N[C@@H](CO)C(=O)N[C@@H](CCCCN)C(=O)N[C@@H](C)C(=O)N[C@@H](Cc1ccccc1)C(N)=O)C(C)C)[C@@H](C)O)C(C)C)C(C)C)C(C)C [hαCGRP],122 ± 18,106 ± 18,101 ± 36,139 ± 22,73 ± 13
50.1,31.6,63.1,20,316,CSCC[C@H](NC(=O)CNC(=O)[C@H](CO)NC(=O)[C@H](Cc1ccccc1)NC(=O)[C@H](CCCNC(=N)N)NC(=O)[C@H](Cc1c[nH]cn1)NC(=O)[C@H](Cc1ccccc1)NC(=O)[C@H](CC(N)=O)NC(=O)[C@H](CC(N)=O)NC(=O)[C@H](CC(C)C)NC(=O)[C@H](CC(N)=O)NC(=O)[C@H](CCCNC(=N)N)NC(=O)[C@H](Cc1c[nH]c2ccccc12)NC(=O)[C@H](Cc1ccc(O)cc1)NC(=O)[C@H](C)NC(=O)[C@H](CO)NC(=O)[C@H](CC(C)C)NC(=O)[C@@H](NC(=O)[C@@H]1CSSC[C@H](N)C(=O)N[C@@H](CO)C(=O)N[C@@H](CC(N)=O)C(=O)N[C@@H](CC(C)C)C(=O)N[C@@H](CO)C(=O)N[C@@H]([C@@H](C)O)C(=O)N1)C(C)C)C(=O)NCC(=O)N[C@@H](Cc1ccccc1)C(=O)NCC(=O)N1CCC[C@H]1C(=O)N[C@@H](CCC(=O)O)C(=O)N[C@H](C(=O)N1CCC[C@H]1C(N)=O)[C@@H](C)O [pCT] (H-CSNLSTCVLSAYWRNLNNFHRFSGMGFGPETP-NH2; disulfide 1-7),81 ± 10,96 ± 8,105 ± 5,104 ± 9,80 ± 8
–,–,–,–,–,CC(C)C[C@H](NC(=O)[C@H](CC(N)=O)NC(=O)[C@H](CC(N)=O)NC(=O)[C@H](CO)NC(=O)[C@H](CO)NC(=O)[C@H](CCCNC(=N)N)NC(=O)[C@@H](NC(=O)[C@H](CC(C)C)NC(=O)[C@H](Cc1ccccc1)NC(=O)[C@H](CC(N)=O)NC(=O)[C@H](C)NC(=O)[C@H](CC(C)C)NC(=O)[C@H](CCCNC(=N)N)NC(=O)[C@H](CCC(N)=O)NC(=O)[C@@H](NC(=O)[C@H](C)NC(=O)[C@@H]1CSSC[C@H](NC(=O)[C@@H](N)CCCCN)C(=O)N[C@@H](CC(N)=O)C(=O)N[C@@H]([C@@H](C)O)C(=O)N[C@@H](C)C(=O)N[C@@H]([C@@H](C)O)C(=O)N1)[C@@H](C)O)C(C)C)C(=O)NCC(=O)N1CCC[C@H]1C(=O)N[C@H](C(=O)N[C@@H](CC(C)C)C(=O)N1CCC[C@H]1C(=O)N1CCC[C@H]1C(=O)N[C@H](C(=O)N[C@@H](CC(N)=O)C(=O)N[C@H](C(=O)NCC(=O)N[C@@H](CO)C(=O)N[C@@H](CC(N)=O)C(=O)N[C@H](C(=O)N[C@@H](Cc1ccc(O)cc1)C(N)=O)[C@@H](C)O)C(C)C)[C@@H](C)O)C(C)C [rAmy],92 ± 9,107 ± 18,101 ± 13,101 ± 10,71 ± 7
–,–,–,–,–,CC(C)C[C@H](NC(=O)[C@H](CCCCN)NC(=O)CNC(=O)[C@H](CC(C)C)NC(=O)[C@@H](NC(=O)[C@@H]1CSSC[C@H](N)C(=O)N[C@@H](CO)C(=O)N[C@@H](CC(N)=O)C(=O)N[C@@H](CC(C)C)C(=O)N[C@@H](CO)C(=O)N[C@@H]([C@@H](C)O)C(=O)N1)C(C)C)C(=O)N[C@@H](CO)C(=O)N[C@@H](CCC(N)=O)C(=O)N[C@@H](CCC(=O)O)C(=O)N[C@@H](CC(C)C)C(=O)N[C@@H](Cc1c[nH]cn1)C(=O)N[C@@H](CCCCN)C(=O)N[C@@H](CC(C)C)C(=O)N[C@@H](CCC(N)=O)C(=O)N[C@H](C(=O)N[C@@H](Cc1ccc(O)cc1)C(=O)N1CCC[C@H]1C(=O)N[C@@H](CCCNC(=N)N)C(=O)N[C@H](C(=O)N[C@@H](CC(N)=O)C(=O)N[C@H](C(=O)NCC(=O)N[C@@H](CO)C(=O)NCC(=O)N[C@H](C(=O)N1CCC[C@H]1C(N)=O)[C@@H](C)O)[C@@H](C)O)[C@@H](C)O)[C@@H](C)O [sCT],105 ± 8,86 ± 5,108 ± 4,111 ± 11,81 ± 5
